Experimental data as given in patent US6710056B2, “Amidinophenylpyruvic acid derivatives” (Ajinomoto Co., Inc., priority 1999, dated 2004).
Structures can show the parent of a compound that is named as a salt.

Key:
[1] = biological target: T1, activated human blood coagulation factor VII (Homo sapiens, UniProt P08709); test: Determination of antagonistic activity to activated human blood coagulation factor VII; format: biochemical; details: FVIIa mixed with tissue factor, substrate S-2288, pH 7.4, initial velocity; read-out: Antagonistic activity to activated blood coagulation factor VII (pIC50 ) (converted)
T1 construct: purchased Enzyme Research Laboratories Ltd. (FVIIa); American Diagnostica Laboratories Ltd. (tissue factor)
Method: Determination of antagonistic activity to activated human blood coagulation factor VII:
100 nM solution of activated human blood coagulation factor VII (Enzyme Research Laboratories Ltd.) in pH 7.4 tris hydrochloride buffer solution was mixed with 100 nM solution of a tissue factor (American Diagnostica Laboratories Ltd.) in pH 7.4 tris hydrochloride buffer solution in equal amounts, and the obtained mixture was left to stand at room temperature for 30 minutes. 50 μl of 50 mM tris hydrochloride buffer solution having a pH adjusted to 7.4 was added to 5 μl of an aqueous solution of a compound to be tested. Then 10 μl of the previously prepared mixture of 50 nM of each of the solutions of activated human blood coagulation factor VII and tissue factor was added to the obtained mixture, and they were incubated at room temperature for 10 minutes. Then 25 μl of 3.2 mM solution of D-isoleucyl-L-prolyl-L-arginyl-P-nitroanilide hydrochloride (S-2288, Daiichi Pure Chemicals Co., Ltd.) in pH 7.4 tris hydrochloride buffer was added to the obtained mixture. The absorbance was determined and the initial reaction velocity was calculated. A control was prepared by using 5 μl of tris hydrochloride buffer adjusted to pH 7.4 in place of the solution of the compound to be tested. The absorbance was determined with MICROPLATE READER Model 3550-UV (BIO RAD) at a wavelength of 405 nm at intervals of […]. The negative logarithm (pIC50) of the concentration of the sample compound for the 50% inhibition of the activity (initial velocity) of the activated blood coagulation factor VII was determined, and it was employed as the index of the antagonistic activity to the activated blood coagulation factor VII.

[2] = biological target: T2, human thrombin (Homo sapiens, UniProt P00734); test: Determination of antagonistic activity to human thrombin; format: biochemical; details: substrate S-2238, pH 8.4, initial velocity, read-out: Antagonistic activity to thrombin (pIC50) (converted)
T2 construct: solution of human thrombin (SIGMA Co. Ltd.); purchased SIGMA Co. Ltd
Method: (2) Determination of Antagonistic Activity to Human Thrombin:
130 μl of 100 mM tris hydrochloride buffer adjusted at pH 8.4 was added to 10 μl of an aqueous solution of a sample compound having antagonistic activity to human thrombin. Then 10 μl of a solution of human thrombin (SIGMA Co. Ltd.) adjusted to 2 units/ml with pH 8.4 tris hydrochloride buffer was added to the obtained mixture, and they were incubated at room temperature for 10 minutes. 50 μl of a 0.4 mM solution of D-phenylalanyl-L-pipecolyl-L-arginyl-P-nitroanilide dihydrochloride (S-2238, Daiichi Pure Chemicals Co., Ltd.) in pH 8.4 tris hydrochloride buffer was added to the obtained mixture. The absorbance was determined and the initial reaction velocity was calculated. A control was prepared by using 10 μl of tris hydrochloride buffer adjusted to pH 8.4 in place of the solution of the compound to be tested. The absorbance was determined with MICROPLATE READER Model 3550-UV (BIO RAD) at a wavelength of 405 nm at intervals of 15 seconds for 6 minutes. The negative logarithm (pIC50) of the concentration of the sample compound for the 50% inhibition of the activity (initial velocity) of thrombin was determined, and it was employed as the index of the antagonistic activity to thrombin.

T1 sequence (P08709 213-466 limits assumed): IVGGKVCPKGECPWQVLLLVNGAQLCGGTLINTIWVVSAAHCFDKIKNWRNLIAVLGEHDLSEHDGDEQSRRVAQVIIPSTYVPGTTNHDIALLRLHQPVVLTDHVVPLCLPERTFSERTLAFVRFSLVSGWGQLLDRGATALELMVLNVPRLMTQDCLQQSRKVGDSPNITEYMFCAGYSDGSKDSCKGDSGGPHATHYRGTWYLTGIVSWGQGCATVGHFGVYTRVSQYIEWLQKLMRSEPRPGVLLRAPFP
T1 sequence (P08709 61-212 limits assumed): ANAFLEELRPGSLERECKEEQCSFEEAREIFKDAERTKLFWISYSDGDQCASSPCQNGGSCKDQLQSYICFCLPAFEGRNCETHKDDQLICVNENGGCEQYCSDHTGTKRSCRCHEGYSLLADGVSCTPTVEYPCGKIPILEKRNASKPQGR
T1 sequence (P13726 33-295 partner): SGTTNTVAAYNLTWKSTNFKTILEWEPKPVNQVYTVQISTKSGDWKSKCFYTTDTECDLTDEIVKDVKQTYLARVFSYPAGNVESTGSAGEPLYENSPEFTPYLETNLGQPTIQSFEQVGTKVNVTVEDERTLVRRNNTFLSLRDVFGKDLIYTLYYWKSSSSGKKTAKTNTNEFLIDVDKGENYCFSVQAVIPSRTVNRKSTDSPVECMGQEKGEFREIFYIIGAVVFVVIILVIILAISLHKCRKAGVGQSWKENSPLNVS

## Cc1nc2ccc(C(=O)N[C@H](CCC(=O)O)COc3cc(C(=N)N)ccc3CC(=O)C(=O)O)cc2[nH]1 [Compound of Ex. 4, (4R)-4-[(2-Methylbenzimidazole-5-carbonyl)amino]-5-[5-amidino-2-(2-carboxy-2-oxoethyl)phenoxy]pentanoic acid bistrifluoroacetate]
[1]
  IC50: 200 nM
[2]
  IC50: > 100000 nM

## N=C(N)c1ccc(CC(=O)C(=O)O)c(OCCNC(=O)c2ccc3nc(N)sc3c2)c1 [Compound of Ex. 39, 3-[4-Amidino-2-[2-(2-amino-benzothiazole-6-carbonyl)aminoethoxy]phenyl]-2-oxo-propionic acid trifluoroacetate]
[1]
  IC50: 20 nM
[2]
  IC50: 39800 nM

## N=C(N)c1ccc(CC(=O)C(=O)O)c(OC[C@@H](CCC(=O)O)NC(=O)c2ccc3nc(N)ccc3c2)c1 [Compound of Ex. 1, (4R)-4-[(2-Aminoquinoline-6-carbonyl)amino]-5-[5-amidino-2-(2-carboxy-2-oxoethyl)phenoxy]pentanoic acid bistrifluoroacetate]
[1]
  IC50: 126 nM
[2]
  IC50: > 100000 nM

## N=C(N)c1ccc(CC(=O)C(=O)O)c(OC[C@@H](CCC(=O)O)NC(=O)c2ccc3nc(N)sc3c2)c1 [Compound of Ex. 28, (4R)-4-[(2-Aminobenzothiazole-6-carbonyl)amino]-5-[5-amidino-2-(2-carboxy-2-oxoethyl)phenoxy]pentanoic acid trifluoroacetate]
[1]
  IC50: 5.01 nM
[2]
  IC50: > 100000 nM

## N=C(N)Nc1ccc(C(=O)N[C@H](CCC(=O)O)COc2cc(C(=N)N)ccc2CC(=O)C(=O)O)cc1 [Compound of Ex. 23, (4R)-4-[(4-Guanidinobenzoyl)amino]-5-[5-amidino-2-(2-carboxy-2-oxoethyl)phenoxy]pentanoic acid bistrifluoroacetate]
[1]
  IC50: 251 nM
[2]
  IC50: > 100000 nM

## COc1ccc(-c2ccccc2)cc1C(=O)N[C@H](CCC(=O)O)COc1cc(C(=N)N)ccc1CC(=O)C(=O)O [Compound of Ex. 27, (4R)-4-(2-Methoxy-5-phenylbenzoylamino)-5-[5-amidino-2-(2-carboxy-2-oxoethyl)phenoxy]pentanoic acid trifluoroacetate]
[1]
  IC50: 50.1 nM

## N=C(N)c1ccc(CC(=O)C(=O)O)c(OCCNC(=O)c2ccc3nc(N)ccc3c2)c1 [Compound of Ex. 2, 3-[4-Amidino-2-[2-(2-aminoquinoline-6-carbonyl)aminoethoxy]phenyl]-2-oxopropionic acid bistrifluoroacetate]
[1]
  IC50: 316 nM
[2]
  IC50: 31600 nM

## N=C(N)c1ccc(CC(=O)C(=O)O)c(OC[C@@H](CCC(=O)O)NC(=O)c2cc3c(cc2Br)CCO3)c1 [Compound of Ex. 45, (4R)-4-[(5-Bromo-2,3-dihydrobenzo[b]furan-6-carbonyl)amino]-5-[5-amidino-2-(2-carboxy-2-oxoethyl)phenoxy]pentanoic acid trifluoroacetate]
[1]
  IC50: 100 nM

## N=C(N)c1ccc(-c2cccc(C(=O)N[C@H](CCC(=O)O)COc3cc(C(=N)N)ccc3CC(=O)C(=O)O)c2)cc1 [Compound of Ex. 13, (4R)-4-[[3-(4-Amidinophenyl)benzoyl]amino]-5-[5-amidino-2-(2-carboxy-2-oxoethyl)phenoxy]pentanoic acid bistrifluoroacetate]
[1]
  IC50: 100 nM
[2]
  IC50: 7940 nM
